Literature values in US20070014819A1, “Method of emulsifying phytosterol by natural saponin,emulsion prepared thereby and water dispersible phytosterol powder product” (WECKTECK BIOTECHNOLOGY COMPANY LIMITED, priority 2005, published 2007).

Tests used:
[1] = around the world
[2] = administered orally directly
[3] = purified

Row | Compound | people dead from the side effects [1] | absorption rate in a human body [2] | solubility in water or oil and most solvents [3] | reduction of total cholesterol in blood (cholesterol in blood; daily intake of 1.4 g for one month) | reduction of the concentration of LDL (cholesterol in blood; daily intake of more than 1.3 g, FDA article)
1 | COCc1c(C(C)C)nc(C(C)C)c(/C=C/[C@@H](O)C[C@@H](O)CC(=O)O)c1-c1ccc(F)cc1 [Baycol, cerivastatin] | more than 100 people | – | – | – | –
2 | CC(C)CCC[C@@H](C)[C@H]1CC[C@H]2[C@@H]3CC=C4C[C@@H](O)CC[C@]4(C)[C@H]3CC[C@]12C [cholesterol, reference compound] | – | more than 50% | – | – | –
3 | β-sitosterol [phytosterol] | – | less than 5% | difficult to be dissolved | about 14% | effectively reduce
